In patent US8653114B2, “O-cyclopropylcyclohexyl-carboxanilides and their use as fungicides” (priority 2010, dated 2014):
Where two headings read alike, the source gives them in different places.

What was measured:
Sphaerotheca fuliginea = test: Sphaerotheca test (cucumber) / preventive; format: in vivo; conditions: 500 ppm of active ingredient, evaluated 7 days after inoculation
Description: (§1) Sphaerotheca Test (Cucumber)/Preventive [table] To produce a suitable preparation of active compound, 1 part by weight of active compound is mixed with the stated amounts of solvent and emulsifier, and the concentrate is diluted with water to the desired concentration. To test for preventive activity, young plants are sprayed with the preparation of active compound at the stated rate of application. One day after this treatment, the plants are inoculated with an aqueous spore suspension of Sphaerotheca fuliginea. Then the plants are placed in a greenhouse at approximately 23° C. and a relative atmospheric humidity of approximately 70%.

Podosphaera leucotricha = test: Podosphaera test (apples) / preventive; format: in vivo; conditions: 100 ppm of active ingredient, evaluated 10 days after inoculation
Description: Podosphaera Test (Apples)/Preventive [table] To produce a suitable preparation of active compound, 1 part by weight of active compound is mixed with the stated amounts of solvent and emulsifier, and the concentrate is diluted with water to the desired concentration. To test for preventive activity, young plants are sprayed with the preparation of active compound at the stated rate of application. After the spray coating has dried on, the plants are inoculated with an aqueous spore suspension of the causal agent of apple mildew (Podosphaera leucotricha). The plants are then placed in a greenhouse at approximately 23° C. and a relative atmospheric humidity of approximately 70%.

[1] = log P by HPLC on reversed phase columns (EEC directive 79/831 Annex V.A8); format: physicochemical; conditions: for chromatographic logP: reversed phase HPLC columns
Description: Measurement of log P values was performed according EEC directive 79/831 Annex V.A8 by HPLC (High Performance Liquid Chromatography) on reversed phase columns with the following methods:
^[b] measurement of LC-MS was done at pH 2.7 with 0.1% formic acid in water and with acetonitrile (contains 0.1% formic acid) as eluent with a linear gradient from 10% acetonitrle to 95% acetonitrile.

Septoria tritici = test: Septoria tritici-test (wheat) / preventive; format: in vivo; conditions: 500 ppm of active ingredient, evaluated 21 days after inoculation
Description: (§2) Septoria tritici-Test (Wheat)/Preventive [table] To produce a suitable preparation of active compound, 1 part by weight of active compound or active compound combination is mixed with the stated amounts of solvent and emulsifier, and the concentrate is diluted with water to the desired concentration. To test for preventive activity, young plants are sprayed with the preparation of active compound or active compound combination at the stated rate of application. After the spray coating has been dried, the plants are sprayed with a spore suspension of Septoria tritici.

Alternaria solani = test: Alternaria test (tomato) / preventive; format: in vivo; conditions: 500 ppm of active ingredient, evaluated 7 days after inoculation
Description: as §1, with “Alternaria” for “Sphaerotheca”, “(Tomato)/Preventive” for “(Cucumber)/Preventive”, “Alternaria solani.” for “Sphaerotheca fuliginea. Then the plants are placed in a greenhouse at approximately 23° C. and a relative atmospheric humidity of approximately 70%.”

Venturia inaequalis = test: Venturia test (apples) / preventive; format: in vivo; conditions: 100 ppm of active ingredient, evaluated 10 days after inoculation
Description: Venturia Test (Apples)/Preventive [table] To produce a suitable preparation of active compound, 1 part by weight of active compound is mixed with the stated amounts of solvent and emulsifier, and the concentrate is diluted with water to the desired concentration. To test for preventive activity, young plants are sprayed with the preparation of active compound at the stated rate of application.

Pyrenophora teres = test: Pyrenophora test (barley) / preventive; format: in vivo; conditions: 500 ppm of active ingredient, evaluated 7-9 days after inoculation
Description: as §1, with “Pyrenophora” for “Sphaerotheca”, “(Barley)/Preventive” for “(Cucumber)/Preventive”, “Pyrenophora teres.” for “Sphaerotheca fuliginea. Then the plants are placed in a greenhouse at approximately 23° C. and a relative atmospheric humidity of approximately 70%.”

[2] = test system: Blumeria graminis f. sp. hordei; test: Blumeria test (barley) / preventive; format: in vivo; conditions: 500 ppm of active ingredient, evaluated 7 days after inoculation
Description: Blumeria Test (Barley)/Preventive [table] To produce a suitable preparation of active compound, 1 part by weight of active compound or active compound combination is mixed with the stated amounts of solvent and emulsifier, and the concentrate is diluted with water to the desired concentration. To test for preventive activity, young plants are sprayed with the preparation of active compound or active compound combination at the stated rate of application. After the spray coating has been dried, the plants are dusted with spores of Blumeria graminis f. sp. hordei.

Puccinia triticina = test: Puccinia triticina-test (wheat) / preventive; format: in vivo; conditions: 500 ppm of active ingredient, evaluated 8 days after inoculation
Description: as §2, with “Puccinia triticina-Test” for “Septoria tritici-Test”, “Puccinia triticina.” for “Septoria tritici.”

[3] = test system: Fusarium nivale (var. majus); test: Fusarium nivale (var. majus)-test (wheat) / preventive; format: in vivo; conditions: 500 ppm of active ingredient, evaluated 5 days after inoculation
Description: Fusarium nivale (var. majus)-Test (Wheat)/Preventive [table] To produce a suitable preparation of active compound, 1 part by weight of active compound or active compound combination is mixed with the stated amounts of solvent and emulsifier, and the concentrate is diluted with water to the desired concentration. To test for preventive activity, young plants are sprayed with the preparation of active compound or active compound combination at the stated rate of application. After the spray coating has been dried, the plants are slightly injured by using a sandblast and afterwards they are sprayed with a conidia suspension of Fusarium nivale (var. majus).

| chromatographic logP ([1]; pH 2.7, HPLC/LC-MS at pH 2.7, 0.1% formic acid in water / acetonitrile gradient, read-out: Log P[b]) | chromatographic logP ([1]; pH 2.7, acid, product isolated with a purity of 87% LC-MS, read-out: log P (acid)) | Log P[b] ([1]; HPLC/LC-MS at pH 2.7, 0.1% formic acid in water / acetonitrile gradient) | SMILES | Eff. % (Sphaerotheca fuliginea) [%] | Eff. % (Podosphaera leucotricha) [%] | Eff. % (Septoria tritici) [%] | Eff. % (Alternaria solani) [%] | Eff. % (Venturia inaequalis) [%] | Eff. % (Pyrenophora teres) [%] | Eff. % [2] [%] | Eff. % (Puccinia triticina) [%] | Eff. % [3] [%] |
| --- | --- | --- | --- | --- | --- | --- | --- | --- | --- | --- | --- | --- |
| 4.02 | 4.02 |  | Cn1nc(C(F)F)c(C(=O)NC2CCCCC2C2CC2C2CC2)c1F (single isomer, unassigned) [Example 1, N-{2-[1,1′-bi(cyclopropyl)-2-yl]cyclohexyl}-3-(difluoromethyl)-5-fluoro-1-methyl-1H-pyrazole-4-carboxamide] | 100 | 100 | 90 | 100 | 100 | 100 | 100 | 100 | 100 |
|  |  | 3.84 | Cn1nc(C(F)F)c(C(=O)NC2CCCCC2C2CC2C2CC2)c1F (single isomer, unassigned) [Example 2, N-{2-[1,1′-bi(cyclopropyl)-2-yl]cyclohexyl}-3-(difluoromethyl)-5-fluoro-1-methyl-1H-pyrazole-4-carboxamide] | 100 | 100 | 90 | 100 | 100 | 100 | 100 | 100 | 100 |
